Assays:
PSAM-GlyR = molecular target: T1, PSAM-GlyR (Homo sapiens, UniProt P23415+P36544, L141F); test: Patch clamp electrophysiology in spinal cord slices of Tlx3^Cre mice injected with AAV8-Flex-PSAM-GlyR; format: tissue-based, mouse
T1 construct: plasmid from Addgene (Sternson); host or cells: mouse dorsal horn neurons transduced with Cre-dependent AAV2/8 (Tlx3^Cre, CCK^Cre or Calr^Cre mice)
Experimental: FIGS. 6A and 6B. Positive and negative controls for PSAM-GlyR and PSEM^89S. (a) Schematic of PSAM-GlyR construct with GFP reporter used to make AAV8-hSyn-Flex-PSAM-GlyR. Virus was injected into Tlx3^Cre mice for electrophysiological slice recordings. (b) Electrode impaling a GFP^+ cell (also shown as DI, image) in a transverse slice of the dorsal horn from a Tlx3^Cre mouse injected with AAV8-hSyn-Flex-PSAMGlyR virus. […] (e) Control for the specificity of α-BTX-Alexa647. Contralateral dorsal horn lacks staining for α-BTX-Alexa647. Calretinin (green in original); PKCγ. Scale bar=50 μm. Box indicates area of inset. (f) In mice lacking PSAM-GlyR, mechanical allodynia and heat hypersensitivity induced by the carrageenan pain model are not altered by injection of PSEM^89S (30 mg/kg, i.p.) (p>0.999, n=4) (g) Punctate and dynamic allodynia induced by CFA are also not altered by injection of PSEM^89S (p>0.999, n=6). (h) In the mice lacking PSAM-GlyR, punctate and dynamic allodynia induced by the sural-SNI model are not altered by injection of PSEM^89S (30 mg/kg, i.p.) ([…], n=6). Data are mean±standard error of the mean (SEM). ***P<0.001; ns=not significant (i.e. p>0.05)
Prior to assessing the role of the neurons in somatosensory behavior, the ability of PSAM-GlyR to inhibit excitatory interneurons in the dorsal horn was tested using electrophysiological recordings in spinal cord slices. AAV8-Flex-PSAM-GlyR was injected intraspinally into the dorsal horn of P16 Tlx3^Cre mice. In this mouse line, the recombinase is strictly expressed by excitatory neurons located throughout laminae I-III. Three weeks later, neuronal excitability was measured using patch clamp electrophysiology in spinal cord slices in the presence and absence of PSEM^89S (FIG. 6(a-d)). To identify PSAM-GlyR^+ neurons, we identified cells expressing green fluorescent protein (GFP), which is also encoded by the PSAM-GlyR viral construct (FIG. 6(a,b)). […] We also tested the effect of the ligand PSEM^89S on pain behavior in mice lacking the receptor (FIG. 6(f,h)).

[1] = molecular target: T2, PSAM-GlyR in CCK^+ dorsal horn neurons (Homo sapiens, UniProt P23415+P36544, L141F/Y115F); test: Persistent pain models in mice expressing PSAM-GlyR in CCK^+ dorsal horn neurons; format: in vivo, mouse; details: PSAM^L141F,Y115F-GlyR virus, CCK^+ neurons
T2 construct: plasmid from Addgene (Sternson); host or cells: mouse dorsal horn neurons transduced with Cre-dependent AAV2/8 (Tlx3^Cre, CCK^Cre or Calr^Cre mice)
Description: Methods. Animals: All animals were kept on a standard 12:12 light/dark cycle in micro-isolator caging racks (Allentown Caging) with food and water provided ad libitum. Mouse strains obtained from Jackson Laboratories include C57Bl/6J (JAX #000664), Calr^Cre (JAX #010774) and CCK^Cre (JAX #012706). Adeno-associated viruses (AAV2/8) used in these experiments: hSyn-Flex-rev-PSAM^L141F-GlyR-IRES-eGFP (7^12 vg/ml) and hSyn-Flex-rev-PSAM^L141F,Y115F-GlyR-IRES-eGFP (1.7^13 vg/ml) were custom made by UNC Vector core based on plasmid material developed by Scott Sternson and provided by Addgene. The hSyn-Flex-rev-PSAM^L141F-GlyR-IRES-eGFP (7^12 vg/ml) was used in all experiments except FIG. 8 (e,f). For these experiments, hSyn-Flex-rev-PSAM^L141F,Y115F-GlyR-IRES-eGFP (1.7^13 vg/ml) was used. Methods including: intra-spinal virus injections, paw withdrawal threshold to von Frey filaments, to cotton swab, Hargreaves, pinprick and acute pain behaviors licking, guarding, flicking are all as previously described (Peirs, C. et al. Dorsal Horn Circuits for Persistent Mechanical Pain. Neuron 87, 797-812 (2015); Seal, R. P. et al. Injury-induced mechanical hypersensitivity requires C-low threshold mechanoreceptors. Nature 462, 651-655, (2009)); For paw withdrawal threshold to pressure: mice were lightly restrained by hand such that their rear legs were allowed to freely hang. Using a Pressure Application Measurement device (Ugo Basile) the hind paw was grasped between the experimenter's forefinger and thumb (with pressure transducer on the thumb), and force was slowly applied to the paw until the mouse struggled or flicked its limb (paw withdrawal threshold, PWT). The final force in grams was recorded. Each mouse was tested on the left and right paw for three trials with a ten-minute inter-trial interval between applications, and the three results averaged for each paw. Injury Models including incision, complete Freund's adjuvant, spared nerve injury tibial and sural models, carrageenan, methylglyoxal and multi-dose streptozotocin are as previously described (Peirs, C. et al. Dorsal Horn Circuits for Persistent Mechanical Pain. Neuron 87, 797-812 (2015); Seal, R. P. et al. Injury-induced mechanical hypersensitivity requires C-low threshold mechanoreceptors. Nature 462, 651-655, (2009); Decosterd, I. and Woolf, C. J. Spared nerve injury: an animal model of persistent peripheral neuropathic pain. Pain 87, 149-158 (2000); Bierhaus, A. et al. Methylglyoxal modification of Nav1.8 facilitates nociceptive neuron firing and causes hyperalgesia in diabetic neuropathy. Nat Med 18, 926-933 (2012); Cavanaugh, D. J. et al. Distinct subsets of unmyelinated primary sensory fibers mediate behavioral responses to noxious thermal and mechanical stimuli. Proc Natl Acad Sci USA 106, 9075-9080, (2009)). Chemogenetic Activation of PSAM-GlyR Receptor: Behavior thresholds were performed as described above in AAV8-hSyn-DIO-PSAM-GlyR-IRES-GFP injected mice. PSEM^89S at 30 mg/kg was injected intraperitoneally 15 minutes prior to testing. Immunohistochemistry was performed as previously described (Peirs, C. et al. Dorsal Horn Circuits for Persistent Mechanical Pain. Neuron 87, 797-812 (2015); Seal, R. P. et al. Injury-induced mechanical hypersensitivity requires C-low threshold mechanoreceptors. Nature 462, 651-655 (2009)). α-bungarotoxin conjugated to Alexa-647 (1:1000; ThermoFisher B35450), α-bungarotoxin conjugated to Alexa-488 (1:1000; ThermoFisher B13422). Imaging: Spinal cord sections were imaged with a confocal laser-scanning microscope (Nikon A1R) and Nikon Elements software using 405-, 488-, 561- and 640 nm excitation laser light. In order to suppress emission crosstalk, the microscope was configured to perform all scanning in sequential mode. Z-series were scanned at 20× magnification with an oil immersion lens and a z-step of 5.0 μm. Quantification and Statistical Analysis: all data are reported as mean±SEM. For acute behaviors, a two-tailed Student's t-test was used. […]

T1 sequence (P36544+P23415 fused P36544:L141F): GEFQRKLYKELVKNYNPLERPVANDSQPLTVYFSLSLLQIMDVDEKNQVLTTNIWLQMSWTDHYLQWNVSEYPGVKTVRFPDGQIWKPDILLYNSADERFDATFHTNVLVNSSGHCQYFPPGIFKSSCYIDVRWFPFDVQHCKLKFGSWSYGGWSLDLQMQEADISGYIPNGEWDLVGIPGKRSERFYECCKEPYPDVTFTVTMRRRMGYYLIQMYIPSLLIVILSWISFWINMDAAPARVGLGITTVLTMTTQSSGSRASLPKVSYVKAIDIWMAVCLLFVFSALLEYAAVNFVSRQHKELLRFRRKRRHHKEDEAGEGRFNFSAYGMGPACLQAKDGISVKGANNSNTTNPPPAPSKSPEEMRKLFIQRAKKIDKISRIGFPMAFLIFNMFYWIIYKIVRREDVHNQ
T2 sequence (P36544+P23415 fused P36544:Y115F/P36544:L141F): as the sequence (P36544+P23415 fused P36544:L141F) above, with Y93F counted along it

## COc1ccc(OC)c(C(=O)NC2CN3CCC2CC3)c1 (centres unmarked) [PSEM^89S]
PSAM-GlyR; 30 μM PSEM^89S applied to spinal cord slices, GFP^+ neurons, n=3 cells from 2 mice
  decrease of membrane potential: −7.3±3.4 mV
PSAM-GlyR; 30 μM, GFP^+ cells
  action potentials generated by current injection: completely blocked
PSAM-GlyR; 30 μM, specifically in GFP-expressing cells
  hyperpolarization on bath application: sustained hyperpolarization
[1]; p=0.010
  heat hypersensitivity induced by multi-dose STZ: reversed
[1]; p=0.0272
  heat hypersensitivity induced by MG (methylglyoxal): reversed
